Test results published in BindingDB's records for doi:10.1021/jm960274q (Basf, 1996).

What follows are compounds tested against Endothelin receptor type B (Cavia porcellus) (assay: Binding affinity towards Endothelin B receptor by measuring its ability to displace [125I]ET-3 from guinea pig cerebellum).
CCOc1cc(OCC)nc(OC(C(=O)O)C(OC)(c2ccccc2)c2ccccc2)n1 (centres undefined) [2-(4,6-Diethoxy-pyrimidin-2-yloxy)-3-methoxy-3,3-diphenyl-propionic acid] showed a Ki of 2.5 µM. Compound COc1cc(OC)nc(OC(C(=O)O)C(OC)(c2ccccc2F)c2ccccc2F)n1 (centres undefined) [2-(4,6-Dimethoxy-pyrimidin-2-yloxy)-3,3-bis-(2-fluoro-phenyl)-3-methoxy-propionic acid] has a Ki of 6 µM. COc1cc(OC)nc(OC(C(=O)O)C(OC)(c2cccc(F)c2)c2cccc(F)c2)n1 (centres undefined) [2-(4,6-Dimethoxy-pyrimidin-2-yloxy)-3,3-bis-(3-fluoro-phenyl)-3-methoxy-propionic acid] showed a Ki of 1.8 µM. With COc1cc(OC)nc(OC(C(=O)O)C(O)(c2ccccc2)c2ccccc2)n1 (centres undefined) [2-(4,6-Dimethoxy-pyrimidin-2-yloxy)-3-hydroxy-3,3-diphenyl-propionic acid] the Ki was 3.5 µM. Work on COc1cc(OC)nc(OC(C(=O)O)C(OC)(c2cccc(C)c2)c2cccc(C)c2)n1 (centres undefined) [2-(4,6-Dimethoxy-pyrimidin-2-yloxy)-3-methoxy-3,3-di-m-tolyl-propionic acid] yielded a Ki of 1.3 µM. For COc1cc(OC)nc(OC(C(=O)O)C(OC)(c2ccc(C)cc2)c2ccc(C)cc2)n1 (centres undefined) [2-(4,6-Dimethoxy-pyrimidin-2-yloxy)-3-methoxy-3,3-di-p-tolyl-propionic acid], the Ki was 1 µM. COc1cc(OC)nc(OC(C(=O)O)C(Oc2ccccc2)(c2ccccc2)c2ccccc2)n1 (centres undefined) [2-(4,6-Dimethoxy-pyrimidin-2-yloxy)-3-phenoxy-3,3-diphenyl-propionic acid] gave a Ki of 1.5 µM. Compound CCc1cc(C)nc(OC(C(=O)O)C(OC)(c2ccccc2)c2ccccc2)n1 (centres undefined) [2-(4-Ethyl-6-methyl-pyrimidin-2-yloxy)-3-methoxy-3,3-diphenyl-propionic acid] has a Ki of 0.16 µM. With COc1cc(OC)nc(OC(C(=O)O)C(OC)(c2ccc(Cl)cc2)c2ccc(Cl)cc2)n1 (centres undefined) [3,3-Bis-(4-chloro-phenyl)-2-(4,6-dimethoxy-pyrimidin-2-yloxy)-3-methoxy-propionic acid] the Ki was 1.3 µM.
